{
  "source": "patent US20260242320A1",
  "about": "“USE OF CANNABIDIOL DERIVATIVE IN PREPARATION OF MEDICAMENT” (priority 2023, published 2026)",
  "key": {"[1]": {"tested_on": "morphine-conditioned mice", "experiment": "Morphine-induced conditioned place preference (CPP)", "type": "in vivo", "details": "0.2 mg/kg i.p.", "procedure": "(§1) Conditional place conditioning (CPP) was conducted using the classic 10-consecutive-day procedure. On days 1 and 2, each mouse was separately placed into the CPP apparatus for 15 min to habituate the apparatus. On day 3 (preconditioning), the time spent in each compartment was recorded to determine any preference for the two compartments. Mice were divided into three groups: vehicle group, 7.5 mg/kg morphine, as well as 7.5 mg/kg morphine+0.2 mg/kg CIAC001. During the conditioning phase, mice were separately isolated in the compartment for 30 min on 6 consecutive days. Mice were given morphine on days 4, 6, and 8, and vehicle (5 mL/kg) was administered on days 5, 7, and 9. The postconditioning phase was carried out 24 h after the last conditioning session. Each mouse was placed in the apparatus and explored freely, and the time spent in each compartment was recorded for 15 min. The CPP score(s) was calculated using the time spent in the drug-paired compartment minus the time spent in the vehicle-paired compartment."}, "morphine-treated mice": {"tested_on": "morphine-treated mice", "experiment": "Morphine-induced behavioral sensitization", "type": "in vivo", "details": "0.2 mg/kg i.p.", "procedure": "Mice were placed into the test chamber (40×40×40 cm^3) for 60 min to habituate the chamber for three consecutive days. […] Locomotor activity was recorded daily for 60 min after the administration of drugs. Next, all the mice were subjected to a 7-day withdrawal period (days 8-14). Subsequently, mice were given morphine (5 mg/kg, i.p.), and locomotor activity was recorded to determine behavioral sensitization."}, "PKM2 tetramer / monomer": {"target": "T1, PKM2 tetramer / monomer (Mus musculus, UniProt P52480)", "T1 construct": "endogenous in cells; host or cells: BV-2 cells", "T1 sequence (P52480 whole entry)": "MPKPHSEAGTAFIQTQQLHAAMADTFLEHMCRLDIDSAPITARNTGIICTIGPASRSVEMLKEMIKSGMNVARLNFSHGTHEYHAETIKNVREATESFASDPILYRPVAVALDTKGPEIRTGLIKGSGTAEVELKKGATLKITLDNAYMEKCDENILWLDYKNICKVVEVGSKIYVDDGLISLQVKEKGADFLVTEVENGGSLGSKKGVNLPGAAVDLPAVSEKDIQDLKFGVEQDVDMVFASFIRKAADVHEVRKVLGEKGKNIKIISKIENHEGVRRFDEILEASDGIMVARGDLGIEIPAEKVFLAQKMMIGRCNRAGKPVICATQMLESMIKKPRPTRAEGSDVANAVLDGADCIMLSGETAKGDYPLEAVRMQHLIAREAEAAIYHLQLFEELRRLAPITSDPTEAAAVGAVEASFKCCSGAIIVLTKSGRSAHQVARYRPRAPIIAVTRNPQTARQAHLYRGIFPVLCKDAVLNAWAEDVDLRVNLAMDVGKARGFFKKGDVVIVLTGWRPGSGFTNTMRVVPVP", "experiment": "Western blot of PKM2 tetramer and monomer in LPS-treated cells", "type": "cell-based", "text": "ImageJ was used for densitometric analysis."}, "Tau, TrkB, Syn1, Aβ": {"tested_on": "Tau, TrkB, Syn1, Aβ", "experiment": "Western blot of Alzheimer's disease markers in mouse hippocampus", "type": "in vivo", "details": "transgene mice, 0, 0.2, 2, or 20 mg/kg", "procedure": "The protein samples from the mouse hippocampus were analyzed for Tau5, p-Tau (T231), p-Tau (S202), p-Tau (S404), p-TrkB (Y705), Syn1, Aβ1-42, and Aβ1-16 protein content using Western blot technique."}, "[2]": {"tested_on": "3×Tg Alzheimer's disease mice", "experiment": "Anxiety tests in Alzheimer's disease model mice (high plus maze, open field)", "type": "in vivo", "details": "i.p., 45 days", "text": "For Alzheimer's disease behavioral experiments (Morris water maze, open field experiment, novel object recognition, Y-maze, and elevated cross maze), triple transgenic mouse models (B6:129-Psen1tm1Mpm Tg (APPswe, tauP301L) 1Lfa/J, 3×Tg) were purchased from the Jax Laboratory in the United States. The wild-type mice (C57BL/6J, WT) were purchased from Beijing Vital River Laboratory Animal Technology Co., Ltd. After 45 days of intraperitoneal injection of CIAC001, all mice were subjected to subsequent behavioral experiments. In order to minimize the use of mice, the mice are first tested for sufficient physical strength and normal mental states. Only one behavioral experiment is conducted per day based on the following schedule: day 1: open field test; day 2-3: novel object recognition; day 3: elevated plus maze; day 4: Y-maze; day 5-13: Morris water maze.\nThe elevated cross maze consisted of two intersecting open arms (25×5×0.5 cm) and two enclosed arms (25×5×16 cm) that were perpendicular to the open arms. A platform (5×5×0.5 cm) was placed in the center of the maze. […]\nAt the beginning of the experiment, the mouse was placed in the center area of the elevated cross maze, facing one of the enclosed arms. […] A camera connected to a computer was used to capture the mouse's movements, and the number of entries and time spent in the open and enclosed arms were recorded. […]"}, "[3]": {"tested_on": "IL-1β in mPFC, NAc and VTA", "experiment": "IL-1β expression in brain regions after chronic morphine", "type": "in vivo", "details": "mice", "procedure": "Total RNA was extracted from cells or mouse brains using the RNeasy Mini Kit. Isolated RNA was reverse-transcribed into cDNA using an RT2 Easy First Strand cDNA Synthesis Kit following the manufacturer's protocols. PCR amplification was conducted using synthetic primers, SYBR Green, and a TOptical Real-Time qPCR Thermal Cycler (Analytik Jena, Thuringia, Germany). The data were analyzed by the […] method, and Rpl711 or Rpl27 was used as an internal control.\nas §1, with “The postconditioning phase was carried out 24 h after the last conditioning session.” left out"}, "[4]": {"experiment": "Body weight during 7 days of administration", "type": "in vivo, mice", "details": "during drug treatment vs vehicle", "procedure": "Mice were intraperitoneally injected with 20 mg/kg CIAC001 or 10 mg/kg THC once daily. After 1 h, the mice were anesthetized with isoflurane by a small animal anesthesia machine (R500IE, RWD Life Science Co) on day 2 and day 5. The respiratory rate of mice was recorded three times within 20 s. The weights of mice were recorded every day."}, "[5]": {"tested_on": "LPS-induced proinflammatory factor nitric oxide (NO) in immunocompetent BV-2 cells", "experiment": "NO assay: inhibition of LPS-induced NO overproduction in BV-2 cells", "type": "cell-based", "details": "Mus musculus; BV-2 cells, LPS 200 ng/mL, 24 h; read-out: Antineuroinflammatory activity (IC50 inhibiting LPS-induced NO)", "procedure": "BV-2 cells were seeded at a density of 5×10^4 cells per milliliter in 96-well plates. After 24 h incubation, the media was removed and changed to DMEM without FBS and penicillin-streptomycin. LPS (200 ng/mL) and different concentrations of compounds were added. After 24 h treatment, 100 μL of media was transferred to flat black 96-well micro fluor plates, and then, 10 μL of 0.05 mg/mL 2,3-diaminonaphthalene was added and incubated in the dark for 15 min. 5 μL of NaOH (3 M) was subsequently added to each well to quench the reaction. NO inhibition ratio was analyzed by a SYNERGY H1 Microplate Reader (BioTek Instruments, Carlsbad, CA, USA) with excitation at 360 nm and emission at 430 nm. The fluorescence value of the LPS-treated group was set as 100%."}},
  "note": "Entries after “also recorded” stand apart in the source; their conditions may differ.",
  "data": [
    {"smiles": "C=C(C)[C@@H]1CCC(C)=C[C@H]1c1c(O)cc(C(C)n2nccn2)cc1O", "note": "(stereo partly drawn) [CIAC001, (1′R,2′R)-4-(1-(2H-1,2,3-Triazol-2-yl)ethyl)-5′-methyl-2′-(prop-1-en-2-yl)-1′,2′,3′,4′-tetrahydro-[1,1′-biphenyl]-2,6-diol]", "values": [
      {"measurement": "expression of morphine-induced CPP", "setting": "[1]", "result": "substantially decreased; also recorded: ameliorated"},
      {"measurement": "locomotor response to morphine challenge (expression of behavioral sensitization)", "setting": "morphine-treated mice; day 15", "result": "decreased the locomotor response"},
      {"measurement": "development of morphine-induced behavioral sensitization (induction period)", "setting": "morphine-treated mice; mice", "result": "significantly inhibited; also recorded: ameliorated"},
      {"measurement": "LPS-induced decline of the PKM2 tetramer", "setting": "PKM2 tetramer / monomer", "result": "reversed the LPS-induced decline of the PKM2 tetramer"},
      {"measurement": "LPS-induced rise of the PKM2 monomer", "setting": "PKM2 tetramer / monomer", "result": "inhibit the LPS-induced rise of the PKM2 monomer; also recorded: inhibited LPS-induced rise of the PKM2 monomer"},
      {"measurement": "Syn1 and Aβ levels", "setting": "Tau, TrkB, Syn1, Aβ", "result": "reduces Syn1 and Aβ levels"},
      {"measurement": "Tau and TrkB phosphorylation", "setting": "Tau, TrkB, Syn1, Aβ", "result": "inhibits Tau and TrkB phosphorylation"},
      {"measurement": "Alzheimer's disease induced anxiety (arm entry activity, grid traversal)", "setting": "[2]", "result": "restored arm entry activity and grid traversal"},
      {"measurement": "morphine-induced IL-1β overexpression in mPFC, NAc and VTA", "setting": "[3]", "result": "inhibited"},
      {"measurement": "body weights", "setting": "[4]", "result": "did not change"},
      {"measurement": "IC50", "setting": "[5]", "result": "2.5 ± 0.7", "unit": "µM"}
    ]}
  ]
}
